Laboratory results as given in ChEMBL document CHEMBL4673222, “Discovery of a Bioactive Inhibitor with a New Scaffold for Cystathionine γ-Lyase” (J Med Chem, 2019).
Activity calls are given as the source filed them. The calls are words filed in the database; no cut-off is given here.

Columns and labels:
Homo sapiens [1] = organism: Homo sapiens; assay: Selectivity index, ratio of IC50 for human CSE R62A mutant to IC50 for wild type human CSE
Homo sapiens [2] = organism: Homo sapiens; assay: Selectivity index, ratio of IC50 for human CBS to IC50 for human DDC
Rattus norvegicus [3] = assay: Reversal of hypotension in Sprague-Dawley rat model of hemorrhagic shock assessed as mean artery pressure level at 50 mg/kg, ip after 45 mins (reference value: 35.8 mmHg); type: functional; settings: 0.75 h
Homo sapiens [4] = organism: Homo sapiens; assay: Selectivity index, ratio of Ki for human CSE Y114F mutant to Ki for wild type human CSE
[5] = molecular target: T1, Cystathionine gamma-lyase (Homo sapiens, UniProt P32929); assay: Competitive inhibition of human CSE using varying levels of L-Cys as substrate and fixed PLP levels
T1 sequence (P32929 whole entry): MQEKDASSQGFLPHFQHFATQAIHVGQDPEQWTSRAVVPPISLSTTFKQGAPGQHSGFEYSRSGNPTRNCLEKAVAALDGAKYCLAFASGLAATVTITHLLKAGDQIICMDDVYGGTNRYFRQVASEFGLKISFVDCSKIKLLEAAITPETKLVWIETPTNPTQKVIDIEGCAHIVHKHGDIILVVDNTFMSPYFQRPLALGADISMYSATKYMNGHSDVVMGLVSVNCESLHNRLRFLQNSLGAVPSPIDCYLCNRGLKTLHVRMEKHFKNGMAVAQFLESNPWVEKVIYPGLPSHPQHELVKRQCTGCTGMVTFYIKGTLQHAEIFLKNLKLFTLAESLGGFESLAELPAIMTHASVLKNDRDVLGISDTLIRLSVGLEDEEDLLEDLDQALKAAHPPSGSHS

[6] = molecular target: T1, Cystathionine gamma-lyase; assay: Binding affinity to human CSE by ITC analysis
HEK-293T = assay: Toxicity in HEK293T cells assessed as cell viability up to 100 uM incubated for 12 to 24 hrs by CellTiter96 aqueous one solution cell proliferation assay; type: cell-based; settings: human, time 12-24 hrs
[7] = Binding affinity to H2S assessed as absorbing of released H2S up to 100 uM in presence of NaHS as H2S donor; settings: dose microM <=100
Homo sapiens [8] = organism: Homo sapiens; assay: Selectivity index, ratio of IC50 for human CSE R119A mutant to IC50 for wild type human CSE
[9] = molecular target: T1, Cystathionine gamma-lyase; assay: Effect on PLP interaction with human CSE assessed as effect on spectra of CSE-bound PLP
[10] = molecular target: T2, Cystathionine beta-synthase (Homo sapiens, UniProt P35520); assay: Inhibition of CBS (unknown origin) by AzMC based fluorescence assay
T2 sequence (P35520 whole entry): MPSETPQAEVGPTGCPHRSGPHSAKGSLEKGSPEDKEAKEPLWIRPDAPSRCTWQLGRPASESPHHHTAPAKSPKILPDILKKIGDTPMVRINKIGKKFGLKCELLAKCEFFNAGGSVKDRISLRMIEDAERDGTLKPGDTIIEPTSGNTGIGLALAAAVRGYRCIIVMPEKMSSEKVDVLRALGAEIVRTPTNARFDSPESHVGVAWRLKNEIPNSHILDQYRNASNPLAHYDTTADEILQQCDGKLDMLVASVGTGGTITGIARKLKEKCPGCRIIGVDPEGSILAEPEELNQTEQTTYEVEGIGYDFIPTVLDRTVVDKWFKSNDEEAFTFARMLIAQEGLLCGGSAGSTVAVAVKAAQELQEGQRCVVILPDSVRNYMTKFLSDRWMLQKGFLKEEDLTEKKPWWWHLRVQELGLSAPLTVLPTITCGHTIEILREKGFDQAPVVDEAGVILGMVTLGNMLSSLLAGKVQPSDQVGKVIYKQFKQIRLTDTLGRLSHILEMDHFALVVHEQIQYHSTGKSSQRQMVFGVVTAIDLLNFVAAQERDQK

[11] = molecular target: T2, Cystathionine beta-synthase; assay: Inhibition of CBS (unknown origin) by methylene blue method
[12] = test system: Cystathionine gamma-lyase (Homo sapiens), P32929 [R119A]; assay: Inhibition of human CSE R119A mutant expressed in HEK293T cells assessed as reduction in H2S contents at 200 to 500 uM by lead acetate assay; type: cell-based; settings: dose 200-500 µM
Chain of Cystathionine gamma-lyase (Homo sapiens), P32929 [R119A] (P32929 whole entry R119A): as the sequence (P32929 whole entry) above, with R119A counted along it

[13] = molecular target: Cystathionine gamma-lyase (Mus musculus) (UniProt Q8VCN5); assay: Potency index, ratio of inhibition activity of PAG to test compound for inhibition of CSE in mouse RAW264.7 cells assessed as reduction in amount of released H2S level by lead acetate method; type: cell-based
Chain of Cystathionine gamma-lyase (Mus musculus) (Q8VCN5 whole entry): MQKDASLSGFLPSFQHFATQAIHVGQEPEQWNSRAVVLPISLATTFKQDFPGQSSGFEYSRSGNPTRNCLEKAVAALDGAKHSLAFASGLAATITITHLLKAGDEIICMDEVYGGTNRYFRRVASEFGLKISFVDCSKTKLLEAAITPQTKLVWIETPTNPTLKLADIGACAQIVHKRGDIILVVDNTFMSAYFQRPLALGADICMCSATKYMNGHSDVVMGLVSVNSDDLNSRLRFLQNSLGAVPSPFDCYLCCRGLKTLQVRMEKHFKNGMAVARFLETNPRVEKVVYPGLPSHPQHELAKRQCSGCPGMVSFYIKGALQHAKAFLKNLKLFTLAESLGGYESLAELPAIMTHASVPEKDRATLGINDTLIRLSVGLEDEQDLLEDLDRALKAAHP

[14] = molecular target: T1, Cystathionine gamma-lyase; assay: Non-competitive inhibition of human CSE using varying levels of PLP and fixed L-Cys as substrate
[15] = molecular target: T1, Cystathionine gamma-lyase; assay: Inhibition of human CSE by methylene blue method
Homo sapiens [16] = organism: Homo sapiens; assay: Selectivity index, ratio of IC50 for human CSE Y114A mutant to IC50 for wild type human CSE
Homo sapiens [17] = organism: Homo sapiens; assay: Selectivity index, ratio of Ki for human CSE R119K mutant to Ki for wild type human CSE
[18] = test system: Cystathionine gamma-lyase (Homo sapiens), P32929 [R119K]; assay: Inhibition of human CSE R119K mutant expressed in HEK293T cells assessed as reduction in H2S contents at 200 to 500 uM by lead acetate assay; type: cell-based; settings: dose 200-500 µM
Chain of Cystathionine gamma-lyase (Homo sapiens), P32929 [R119K] (P32929 whole entry R119K): as the sequence (P32929 whole entry) above, with R119K counted along it

[19] = molecular target: Cystathionine gamma-lyase (Mus musculus) (UniProt Q8VCN5); assay: Inhibition of CSE in mouse RAW264.7 cells assessed as reduction in amount of released H2S level at 20 to 50 uM by lead acetate method; type: cell-based; settings: dose 20-50 µM
[20] = molecular target: T1, Cystathionine gamma-lyase; assay: Inhibition of wild type human CSE expressed in HEK293T cells assessed as reduction in H2S contents; type: cell-based
Rattus norvegicus [21] = assay: Inhibition of CSE in Sprague-Dawley rat model of hemorrhagic shock assessed as reduction in plasma H2S level at 50 mg/kg, ip after 45 mins by methylene blue dye based method; type: functional, organism-based
Homo sapiens [22] = organism: Homo sapiens; assay: Selectivity index, ratio of IC50 for human CBS to IC50 for human CSE
Rattus norvegicus [23] = assay: Inhibition of CSE in Sprague-Dawley rat model of hemorrhagic shock assessed as increase in plasma H-cys level at 50 mg/kg, ip after 45 mins by ELISA; type: functional, organism-based
[24] = molecular target: T1, Cystathionine gamma-lyase; assay: Inhibition of human CSE using H-Cys as the substrate by tandem well based HTS assay
Homo sapiens [25] = organism: Homo sapiens; assay: Selectivity index, ratio of IC50 for human CSE R119K mutant expressed in HEK293T cells to IC50 for wild type human CSE expressed in HEK293T cells; type: cell-based
Homo sapiens [26] = organism: Homo sapiens; assay: Selectivity index, ratio of IC50 for human CSE R119A mutant expressed in HEK293T cells to IC50 for wild type human CSE expressed in HEK293T cells; type: cell-based
Homo sapiens [27] = organism: Homo sapiens; assay: Selectivity index, ratio of IC50 for human CSE Y114F mutant expressed in HEK293T cells to IC50 for wild type human CSE expressed in HEK293T cells; type: cell-based
[28] = molecular target: T2, Cystathionine beta-synthase; assay: Inhibition of human CBS by methylene blue method
Homo sapiens [29] = organism: Homo sapiens; assay: Selectivity index, ratio of Ki for human CSE R119A mutant to Ki for wild type human CSE
Homo sapiens [30] = organism: Homo sapiens; assay: Selectivity index, ratio of IC50 for human CSE R119K mutant to IC50 for wild type human CSE
[31] = molecular target: T1, Cystathionine gamma-lyase; assay: Inhibition of human CSE using H-Cys as the substrate by LC/MS/MS-based assay
[32] = molecular target: T1, Cystathionine gamma-lyase; assay: Inhibition of human CSE using L-Cys as the substrate by tandem well based HTS assay
Homo sapiens [33] = organism: Homo sapiens; assay: Selectivity index, ratio of IC50 for human CSE Y114F mutant to IC50 for wild type human CSE
[34] = molecular target: Cystathionine gamma-lyase (Mus musculus) (UniProt Q8VCN5); assay: Inhibition of CSE in mouse RAW264.7 cells assessed as increase in levels of cellular H-cys level at 1 to 500 uM by ELISA; type: cell-based; settings: dose 1-500 µM
[35] = molecular target: T1, Cystathionine gamma-lyase; assay: Inhibition of human CSE expressed in mouse RAW264.7 cells assessed as reduction in amount of released H2S level at 20 to 50 uM by lead acetate method; type: cell-based; settings: dose 20-50 µM

For `O=C(O)C1=CC(=C(c2ccc(O)c(C(=O)O)c2)c2ccc(O)c(C(=O)O)c2)C=CC1=O` [AURINTRICARBOXYLIC ACID], the Ratio IC50 (Homo sapiens [1]) was greater than 10, the Ratio IC50 (Homo sapiens [2]) was 143 and the Activity (Rattus norvegicus [3]) was 65 mmHg. For the same molecule, the Ratio Ki (Homo sapiens [4]) was 44.5, the Ki [5] was 0.6 µM and the Kd [6] was 3.4 µM. The Activity (HEK-293T) was “Non-Toxic”, the Activity [7] was “inactive” and the Ratio IC50 (Homo sapiens [8]) was 32. The Activity [9] was “inactive”, the IC50 [10] was 3 µM and the IC50 [11] was 20 µM. For the same molecule, the inhibition [12] was “inactive”, the Ratio [13] was 8 and the alphaKi [14] was 4.2 µM. It also gave an IC50 [15] of 2.6 µM, a Ratio IC50 (Homo sapiens [16]) greater than 10 and a Ratio Ki (Homo sapiens [17]) of 40.5. The inhibition [18] was “inactive”, the inhibition [19] was “Active” and the IC50 [20] was 34.7 µM. The inhibition [20] was “Dose-dependent effect”, the inhibition (Rattus norvegicus [21]) was “Active” and the Ratio IC50 (Homo sapiens [22]) was 137. For the same molecule, the inhibition (Rattus norvegicus [23]) was “Active”, the IC50 [24] was 1.7 µM and the Ratio IC50 (Homo sapiens [25]) was 6. It also gave a Ratio IC50 (Homo sapiens [26]) of 6, a Ratio IC50 (Homo sapiens [27]) of 6 and an IC50 [28] of 54.2 µM. It also gave a Ratio Ki (Homo sapiens [29]) of 52, a Ratio IC50 (Homo sapiens [30]) of 26 and an IC50 [31] of 3.3 µM. For the same molecule, the inhibition [31] was “Dose-dependent effect”, the IC50 [32] was 0.6 µM and the Ratio IC50 (Homo sapiens [33]) was 29.6. For the same molecule, the inhibition [34] was “Active” and the inhibition [35] was “Active”.
